The values below come from patent US20260102457A1, “ANTICOAGULANT-PEPTIDE NANOGRANULES FOR THROMBOSIS-ACTUATED ANTICOAGULATION” (The Penn State Research Foundation, priority 2022, published 2026).

Where no end group is shown, it is not given here.

In series [1] the test system is bovine platelet rich plasma (PRP). The note with it: equivalent heparin concentration of 2 μg/mL, FIG. 3b.
Description: Here, bovine PRP was acquired from the top clear layer after centrifuging citrated bovine whole blood at 600 rcf for 30 minutes (4° C.) with minimum acceleration/break ramps. […] Clot formation was initiated by combining 450 μL bovine PRP, 50 μL HMG treatment solution, and 50 μL 0.1M CaCl2) in a 24-well plate. DI water was included as a negative control. Samples were mixed on an oscillating rocker plate and clotting time determined as the time required for observable aggregate formation upon recalcification.
For series [2], the system named is activated platelets. Put plainly: Platelet localization and binding (confocal microscopy, flow cytometry). It counts as cell-based, bovine. The note with it: 15 minutes incubation. The protocol: Bovine platelets were acquired from bovine PRP by centrifugation (800 rcf, 15 minutes), labelled with DiI (5 μg/mL), washed, and resuspended in PBS. At the time of treatment, platelets were further centrifuged (800 rcf, 15 minutes) to replace PBS supernatant with treatment solutions. Treatments of AMCA/FITC HMG, FITC-MAD1, or AMCA-heparin were prepared in PBS at equivalent concentrations, incubated with platelet samples for 15 minutes and then transferred to 4-well chambered slide (500 μL) before imaging using an Olympus FluoView 1000 confocal microscope (Tokyo, Japan).
MAD1-platelet binding was analyzed via flow cytometry by resuspending platelets in PBS containing 1 mg/mL FITC-MAD1. Blank PBS was used as an untreated control. After a 15-minute incubation, treated platelets were centrifuged (800 rcf, 15 minutes) and resuspended in PBS before analysis using a Guava Flow Cytometer (Millipore Sigma; Burlington, MA). Data was analyzed by FlowJo software.
On the technique in general: A flow cytometer gives signals particle by particle.

Series [3] in a line: In vivo heparin serum/plasma concentration over time. Set-up: species or system C57BL/6J mice. The note with it: for time of highest heparin serum concentration: first sampling timepoint; for time to complete clearance from serum: post administration; for heparin serum half-life (t1/2): single dose 10 IU heparin. The protocol:
(§1) Murine studies were performed under IACUC protocol 202102036. HMG particles were prepared using rhodamine-heparin doped 20 vol % into unlabeled heparin before electrospray synthesis. Dialyzed HMG particles were concentrated by Centri Vap DNA Concentrator to achieve 0.5 mg/mL equivalent heparin. Sterile 10×PBS was diluted ten-fold into samples before injection of a 200 μL volume into C57BL/6J mice. Two groups (n=4) received free heparin given via tail vein injection or injected subcutaneously in the neck scruff. A third group (n=4) received HMG sample as a subcutaneous depot in the neck scruff. All mice received a final heparin dose of 10 IU. At each time point, mice were sacrificed, and blood samples collected into citrate tubes via cardiac puncture. Coagulation time was determined on whole blood samples via INTEM analysis on a ROTEM delta coagulation analyzer (Werfen; Bedford, MA). Clotting times were chosen to evaluate the efficacy of each treatment's ability to inhibit thrombin-linked platelet activation and initial fibrin polymerization/recruitment. INTEM coagulation analysis was selected based on its established sensitivity for the presence of heparin. For a typical experiment, serum is isolated via centrifugation (1000 rcf, 10 minutes) and fluorescence measurements taken (λex=560 nm, λem=590 nm). Kidney, liver, and spleen tissues were also collected and homogenized before centrifugation at 10,000 rcf for 20 minutes to remove bulk fibrous structures. 100 μL of the remaining supernatant was evaluated for heparin presence via fluorescence measurements (λex=560 nm, λem=590 nm) using a BioTek Cytation 3 Plate Reader.

Series [4] is described as follows: Tissue biodistribution of heparin (liver, kidney, spleen fluorescence). The note with it: kidneys. Type of series: in vivo, C57BL/6J mice. The protocol: as §1, with “INTEM coagulation analysis was selected based on its established sensitivity for the presence of heparin.” left out, “Kidney, liver, and spleen tissues were also collected and homogenized before centrifugation at 10,000 rcf for 20 minutes to remove bulk fibrous structures.” left out

The conditions of series [5]: clinical background; cited from earlier work.
Series [6] has as its system whole blood coagulation. Briefly: In vivo anticoagulation: blood clotting time (INTEM, ROTEM). The arrangement: species or system C57BL/6J mice. The protocol:
as §1

On to “KRWHWWRRHWVVW-NH2 [MAD1, de novo designed tryptophan-rich antitubercular peptide with C-terminal amido group]”, for which, in series [1], the “clotting time of blood treated with peptide alone” value is on record as “significant increase in clotting time”. In addition, the “binding to activated platelets” value in series [2] was “high avidity”.
heparin: in series [3] (intravenous), the “time of highest heparin serum concentration” value came out at 30 min, the “time to complete clearance from serum” value is roughly 6 h and the “heparin serum half-life (t1/2)” value amounted to 1.3 h. In addition, in series [3] (subcutaneous), the “time of transient spike in heparin serum concentration after dosing” value was in the range of 4 to 6 h, the “time of highest heparin serum concentration” value is 30 min, the “time to complete clearance from serum” value is roughly 6 h and the “heparin serum half-life (t1/2)” value came to 1.4 h. Besides, in series [4] (intravenous), the “tissue biodistribution / clearance route of heparin” value is given as “initially excreted through the renal system, with additional hepatic clearance observed at ˜6 hours”. Moreover, the “tissue biodistribution / clearance route of heparin” value in series [4] (subcutaneous) was “early liver uptake that later shifted to renal clearance”. The “plasma half-life (t1/2)” value in series [5] was roughly 1 h. The substance also came in with a blood clotting time in series [6] (intravenous, 0.5 hour time point) of 35.5 min. The “time to return to basal clotting activity” value in series [6] (intravenous, post administration, basal 3.5 minutes) is on record as “approximately 2 hours”. In series [6] (subcutaneous, 0.5-24 hours), the “change in clotting behavior” value is reported as “negligible changes in clotting behavior for all time points except 6 hours”.
